Measurements published in ChEMBL document CHEMBL1151409, “Flavonoids of Desmanthus illinoensis” (1983).
Activity calls are given as the source filed them. The calls are words filed in the database; no cut-off is given here.

How the values were obtained:
Bacillus subtilis = test: Antibacterial activity against Bacillus subtilis at 100 ug by test disc paper method; assay type: functional; details: read-out: IZ
[1] = test system: Lysinibacillus sphaericus; test: Antibacterial activity against Bacillus sphaericus by test disc paper method; assay type: functional, organism-based
Heliothis virescens = test: Growth inhibition of tobacco budworm larvae assessed as percent of diet; assay type: functional
Solanum lycopersicum = test: Growth regulatory activity on tomato root; assay type: functional, organism-based
Bacillus thuringiensis = test: Antibacterial activity against Bacillus thuringiensis at 100 ug by test disc paper method; assay type: functional; details: read-out: IZ
[2] = test system: Stenotrophomonas maltophilia; test: Antibacterial activity against Pseudomonas maltophilia at 100 ug by test disc paper method; assay type: functional; details: read-out: IZ

| Compound | zone of inhibition at 100 µg/disc (Bacillus subtilis) | Activity [1] | ED50 (Heliothis virescens) | Activity (Solanum lycopersicum) | zone of inhibition at 100 µg/disc (Bacillus thuringiensis) | zone of inhibition at 100 µg/disc [2] |
| --- | --- | --- | --- | --- | --- | --- |
| O=C(O)c1cc(O)c(O)c(O)c1 [GALLIC ACID] | 10 mm | Active | 18.5% |  |  |  |
| C[C@H]1O[C@@H](Oc2c(-c3cc(O)c(O)c(O)c3)oc3cc(O)cc(O)c3c2=O)[C@@H](O)[C@@H](O)[C@@H]1OC(=O)c1cc(O)c(O)c(O)c1 |  |  | 0.04% | inactive |  |  |
| C[C@H]1O[C@@H](Oc2c(-c3cc(O)c(O)c(O)c3)oc3cc(O)cc(O)c3c2=O)[C@@H](OC(=O)c2cc(O)c(O)c(O)c2)[C@@H](O)[C@@H]1O | 10 mm | Active | 0.09% |  | 10 mm | 10 mm |
| C[C@H]1O[C@@H](Oc2c(-c3cc(O)c(O)c(O)c3)oc3cc(O)cc(O)c3c2=O)[C@@H](O)[C@@H](O)[C@@H]1O [MYRICITRIN] |  |  | 0.11% |  |  |  |
| O=c1c(O)c(-c2ccc(O)c(O)c2)oc2cc(O)cc(O)c12 [QUERCETIN] |  |  | 0.05% |  |  | 10 mm |
